Experimental data: patent US20070004660A1, “Synergistic Modulation of Flt3 Kinase Using Alkylquinolines and Alkylquinazolines” (priority 2005, published 2007)
Like-named read-outs stand apart in the source and are kept apart here.

Key:
MV-4-11 tumor xenografts = experiment: In vivo combination study, FLT3 inhibitor Compound B and Tipifarnib, MV-4-11 xenografts; details: for effect on tumor growth compared to Vehicle-treated group: nine days
Description: The effect of combination treatment of the FLT3 Inhibitor FLT3 inhibitors of Formula I′ and Tipifarnib (Zarnestra™) on the growth of MV-4-11 human AML tumor xenografts in nude mice was tested using FLT3 inhibitor Compound B. The in vivo study was designed to extend the in vitro observations to evaluate the potential for a synergistic anti-tumor effect of FLT3 inhibitor Compound B administered orally together with Tipifarnib to nude mice bearing established MV-4-11 tumor xenografts.

MV4-11 tumor xenografts = details: for reduction of final tumor weight compared to vehicle-treated group / tumor regression, decrease versus starting mean tumor volume on Day 1: 11 days; for decrease of mean tumor volume compared to vehicle-treated group: Day 11
Description: The oral anti-tumor efficacy of a subset of the compounds of the invention was evaluated in vivo using a nude mouse MV4-11 human tumor xenograft regression model.

MV4-11 AML cells = experiment: Cell proliferation assay, single agents and FTI/FLT3 inhibitor combinations, MV4-11; format: cell-based, human; details: Homo sapiens, MV4-11; proliferation; FLT3 inhibitor alone or, in combination lines, in the combination
Description: Dose responses for the individual compounds alone were determined for each cell line using a standard 72-hour cell proliferation assay (see FIGS. 6.1-6.8). The standard chemotherapeutic agent Cytarabine was used as a control cytotoxic agent in all experiments. […] The FLT3 inhibitors, Compounds A, B, C, D, E, F G and H individually have good potency (sub-micromolar) for the inhibition of FLT3 driven proliferation (compared to the first line cytotoxic agent Cytarabine and Tipifarnib) in cells that depend on FLT3 for growth. Each of these chemically distinct compounds alone has potential for the treatment of disorders related to FLT3, such as FLT3 positive AML. […] The FLT3 inhibitors tested had no effect on THP-1 proliferation. […] (See FIGS. 10.1-10.8 and Tables 1-3, hereafter.)
To statistically evaluate the synergy of a FLT3 inhibitor and an FTI in FLT3 dependent cell lines, dosing combinations were evaluated by the method of Chou and Talalay. See Chou T C, Talalay P. (1984) “Quantitative analysis of dose-effect relationships: the combined effects of multiple drugs or enzyme inhibitors.” Adv Enzyme Regul. 22:27-55. […] Using this method, multiple FTI and FLT3 combinations were evaluated. […]
Cell proliferation assay for MV4-11, Baf3-ITD, Baf3-FLT3 and THP-1 cells. […] Total cell growth is quantified as the difference in luminescent counts (relative light units, RLU) of cell number at Day 0 compared to total cell number at Day 3 (72 hours of growth and/or compound treatment). One hundred percent inhibition of growth is defined as an RLU equivalent to the Day 0 reading. […]
Combination Index Analysis. To determine growth inhibition synergy of a FTI and FLT3 inhibitor combination based on the method of Chou and Talalay (Chou and Talalay. See Chou T C, Talalay P. (1984) “Quantitative analysis of dose-effect relationships: the combined effects of multiple drugs or enzyme inhibitors.” Adv Enzyme Regul. 22:27-55. ), fixed ratio combination dosing with isobolar statistical analysis was performed. […]

FLT3 = FLT3 phosphorylation in MV4-11 tumors from treated mice (immunoblot); format: in vivo, human; details: single dose 100 mg/kg po, tumors harvested 2 hours later
Description: To establish further that FLT3 inhibitors of Formula I′ reached the expected target in tumor tissue, the level of FLT3 phosphorylation in tumor tissue obtained from vehicle- and compound-treated mice was measured. Results for FLT3 inhibitor Compound B (Compound 73 of Formula I′) and FLT3 inhibitor Compound C (Compound 74 of Formula I′) are shown in FIG. 3 and FIG. 4, respectively. For this pharmacodynamic study, a sub-set of 10 mice from the vehicle-treated control group were randomized into two groups of 5 mice each and then treated with another dose of vehicle or compound (100 mg/kg, po). Tumors were harvested 2 hours later and snap frozen for assessment of FLT3 phosphorylation by immunobloting.
Harvested tumors were processed for immunoblot analysis of FLT3 phosphorylation in the following manner: 100 mg of tumor tissue was dounce homogenized in lysis buffer (50 mM Hepes, 150 mM NaCl, 10% Glycerol, 1% Triton-X-100, 10 mM NaF, 1 mM EDTA, 1.5 mM MgCl2, 10 mM NaPyrophosphate) supplemented with phosphatase (Sigma Cat# P2850) and protease inhibitors (Sigma Cat #P8340). Insoluble debris was removed by centrifugation at 1000×g for 5 minutes at 4° C. Cleared lysates ([…] of total potein at 10 mg/ml in lysis buffer) were incubated with 10 μg of agarose conjugated anti-FLT3 antibody, clone C-20 (Santa Cruz cat # sc-479ac), for 2 hours at 4° C. with gentle agitation. […]

## CN1CCN(CCCOc2ccc3c(C4CCN(C(=O)Nc5ccc(N6CCOCC6)cc5)CC4)ncnc3c2)CC1 [FLT3 inhibitor Compound B, 4-{7-[3-(4-Methyl-piperazin-1-yl)-propoxy]-quinazolin-4-yl}-piperidine-1-carboxylic acid (4-morpholin-4-yl-phenyl)-amide]
MV-4-11 tumor xenografts; 10 mg/kg bid po
  effect on tumor growth compared to Vehicle-treated group: marginal significant inhibition of tumor growth
MV-4-11 tumor xenografts; 20 mg/kg bid po
  effect on tumor growth compared to Vehicle-treated group: tumor growth stasis
MV-4-11 tumor xenografts; 9-day treatment, either agent alone or in combination
  overt toxicity: No overt toxicity
MV4-11 tumor xenografts; 10 mg/kg b.i.d. po
  reduction of final tumor weight compared to vehicle-treated group: 48%
  decrease of mean tumor volume compared to vehicle-treated group: 44%
MV4-11 tumor xenografts; 30 mg/kg b.i.d. po
  reduction of final tumor weight compared to vehicle-treated group: 85%
  tumor regression, decrease versus starting mean tumor volume on Day 1: 42%
  decrease of mean tumor volume compared to vehicle-treated group: 84%
MV4-11 tumor xenografts; 100 mg/kg b.i.d. po
  reduction of final tumor weight compared to vehicle-treated group: 99%
  tumor regression, decrease versus starting mean tumor volume on Day 1: 77%
  decrease of mean tumor volume compared to vehicle-treated group: 94%
MV4-11 AML cells
  IC50: 31.3 nM
FLT3
  level of FLT3 phosphorylation in MV4-11 tumors versus vehicle: biologically significant reduction
